Measured values from patent US20250188136A1, “AV3 MUTANT POLYPEPTIDES FOR PEST CONTROL” (Vestaron Corporation, priority 2021, published 2025).
Ends that are not written are not given here.

Key:
[1] = system: Spodoptera frugiperda; test: Lepidoptera injection assay, fall armyworm (FAW); assay type: in vivo; conditions: third instar larva, 2 μL injection, scored at 24-hours post-injection
Procedure: (§1) An injection assay was performed on Helicoverpa zea (corn earworm or “CEW”) and Spodoptera frugiperda (fall armyworm or “FAW”). Injections comprised a given Av3b mutant peptide combined with water to arrive at the planned dose. The Av3b mutants included Av3bM24; Av3bM165; Av3bM103; and Av3bM170. Av3b was used as a control.
(§2) Insects were reared on an artificial diet prepared from General Purpose Lepidoptera diet (Frontier Scientific, Newark, DE 19713, product No. F9772) according to the manufacturer's instructions. To perform the insect injection bioassay, 5 mL of hot diet was dispensed into the well of a rearing tray (Bio-Service Inc., Bio-RT-32), with 8 wells per injection treatment. The hot diet was then allowed to cool and solidify. Next, third instar larva were incubated on ice in order to immobilize them. Injections were prepared on a hand-microapplicator with injection solution (>100 μL) in 1-cc all-glass syringe having a 30 gauge straight needle. Air bubbles were removed from the syringe, and the syringe was set it up on the microapplicator. Injection volume was adjusted in the microapplicator at 2 μL.
(§3) To inject the larva, the insects were picked up and positioned close to the injection needle. The needle was allowed to penetrate the cuticle of the third pro-leg of the larva. The injection knob of the microapplicator was then rotated to inject a 2 μL solution into hemolymph from the third pro-leg. After injection the larva maintained on the needle for a few seconds to make sure the injected solution was absorbed. Then, the larva were gently removed from the needle and placed into the wells of prepared tray, along with 5 mL of solidified diet per well. Finally, the tray was sealed with vent covers.
(§4) Injected larva were incubated at 28° C. in an insect incubator, and scored at 24-hours post-injection based on their condition. Insect conditions were categorized as follows: alive (walking, eating, normal behavior); affected (showing toxic symptoms, such as tremors, writhing, unbalanced gait, or a combination thereof), knockdown (paralyzed albeit able to move with gentle poke); and dead (unmoving, discoloration, or a combination thereof).

[2] = Circular dichroism assay, melting temperature; assay type: physicochemical; conditions: 10 mM Na3PO4 solution, pH 5.9; 20° C. to 98° C.
Procedure: A JASCO J-1500 CD spectrometer (JASCO, 28600 Mary's Court, Easton, MD 21601 USA) was used to measure the CD spectrum and the secondary structure information of the Av3bM24, Av3bM165, Av3bM103, and Av3bM170 peptides (with Av3b as a comparator). The peptides were prepared in 10 mM Na3PO4 solution, pH 5.9, and loaded into the cuvette for CD spectrum measurement. Measurements were processed with a light wavelength scan ranging from 180 nm to 250 nm, with a 1 nm interval; the temperature graduate changed from 20° C. to 98° C., with 2° C. interval.

[3] = DASbox small-scale fermentation, degradation by HPLC and LC/MS; assay type: physicochemical; conditions: DASbox fed batch fermentation runs
Procedure: DASbox® is a parallel bioreactor system (Eppendorf, 175 Freshwater Blvd, Enfield, CT 06082, USA). The DASbox system used here contains 8 fermentation vessels with 250 mL volume capacity, allowing 8 small scale fermentation runs simultaneously. The DASbox fermentation runs were performed according to the manufacturer's instructions, and using the fermentation conditions described herein.
The screening of the Av3b mutants was conducted using a fed batch process in aerobic bioreactor. Reactors were initially filled to ˜45% capacity with a rich culture media containing 5-20 g/L of a carbon source such as glucose, sorbitol, or lactose, 5-20 g/L phosphoric acid, 0.1-1.5 g/L Calcium sulfate, 5-15 g/L Potassium sulfate, 0.5-10 g/L Magnesium sulfate heptahydrate, 1-5 g/L potassium hydroxide, and 10-60 g/L of corn steep liquor. The temperature of the reactor was maintained between 25-35° C. for the duration of the fermentation. The pH was held constant between 4-5.5 with the addition of 15% ammonium hydroxide. Dissolved oxygen was held constant by sparging air between 0.5-1.5 volume/volume/min and by increasing agitation to maintain a set point of 10-30%.
Inoculation of the reactor was from an overnight seed culture containing 5-40 g/L of a carbon source such as glucose, sorbitol, or lactose, and 5-40 g/L of corn steep liquor. Inoculation percentage ranged from 5-20% of initial fill volume. Once inoculated, the reactor was fed with a 70% solution of the selected carbon source until the reactor was filled and/or desired supernatant peptide concentration was achieved, approximately 96-140 hours and 0.8-1.2 g/L, respectively.

[4] = system: Helicoverpa zea; test: Lepidoptera injection assay, corn earworm (CEW); assay type: in vivo
Procedure: as §1, §2, §3, §4

## KSCCPCYWGGCPWGQNCYPEGCDGPK (ends and bridges not checked; cysteine pairing not given here) [Av3bM24]
[1]
  KD50 FAW: 949 pmol/g
[2]
  CD Melting temperature: 80 °C
[3]
  degradation detected via HPLC and LC/MS: degradation was detected
[4]; CEW and FAW injection, KD50
  knock-down effects compared to Av3b: comparable knock-down effects to Av3b
[4]; third instar larva, 2 μL injection, scored at 24-hours post-injection
  KD50 CEW: 428 ± 131 (N = 4) pmol/g
